Reference: ChEMBL document CHEMBL3244015, “Synthesis and biological evaluation of a tetrahydroisoquinoline derivative possessing selective beta2-adrenergic agonist activity” (J Med Chem, 1977)
Active and inactive are the calls of the source. The calls are words filed in the database; no cut-off is given here.

Legend:
[1] = molecular target: Beta-1 adrenergic receptor (Cavia porcellus) (UniProt B0FL73); experiment: Agonist activity at beta-1 adrenergic receptor in isolated guinea pig atrial preparation assessed as induction of chronotrophic response at 10^-9 to 10^-3 M; conditions: Cardiac atrium
[2] = molecular target: Beta-2 adrenergic receptor (Cavia porcellus) (UniProt Q8K4Z4); experiment: Agonist activity at beta-2 adrenergic receptor in isolated guinea pig trachea assessed as induction of relaxation of tracheal muscle
[3] = molecular target: Beta-2 adrenergic receptor (Cavia porcellus) (UniProt Q8K4Z4); experiment: Agonist activity at beta-2 adrenergic receptor in isolated guinea pig trachea assessed as induction of relaxation of tracheal muscle at 10^-9 to 10^-3 M

Beta-2 adrenergic receptor (Cavia porcellus), sequence (Q8K4Z4 whole entry, looked up): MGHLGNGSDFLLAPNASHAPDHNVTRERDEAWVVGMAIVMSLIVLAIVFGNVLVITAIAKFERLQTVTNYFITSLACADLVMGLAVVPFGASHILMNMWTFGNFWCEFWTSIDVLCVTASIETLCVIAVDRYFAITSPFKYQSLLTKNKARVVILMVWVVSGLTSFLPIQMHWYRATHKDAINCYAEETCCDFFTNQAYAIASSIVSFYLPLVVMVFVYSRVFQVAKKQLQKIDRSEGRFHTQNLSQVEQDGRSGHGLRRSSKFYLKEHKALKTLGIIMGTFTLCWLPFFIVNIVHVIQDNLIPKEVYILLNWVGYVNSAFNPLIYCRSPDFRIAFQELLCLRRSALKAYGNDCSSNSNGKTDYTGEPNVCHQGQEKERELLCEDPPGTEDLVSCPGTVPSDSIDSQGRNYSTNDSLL
Beta-1 adrenergic receptor (Cavia porcellus), sequence (B0FL73 1-467): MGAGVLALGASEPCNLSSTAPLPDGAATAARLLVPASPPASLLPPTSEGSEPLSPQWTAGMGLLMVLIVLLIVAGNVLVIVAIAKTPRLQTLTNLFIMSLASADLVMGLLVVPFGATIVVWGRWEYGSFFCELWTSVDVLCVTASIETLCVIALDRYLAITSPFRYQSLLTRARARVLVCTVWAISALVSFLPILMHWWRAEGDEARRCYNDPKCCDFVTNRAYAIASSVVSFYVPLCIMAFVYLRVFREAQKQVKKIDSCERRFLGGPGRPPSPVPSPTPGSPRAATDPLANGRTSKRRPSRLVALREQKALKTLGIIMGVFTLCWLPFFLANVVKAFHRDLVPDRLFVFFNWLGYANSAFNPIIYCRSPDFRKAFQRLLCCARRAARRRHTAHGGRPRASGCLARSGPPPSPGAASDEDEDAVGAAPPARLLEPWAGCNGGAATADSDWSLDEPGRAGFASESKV

COc1cc(CC2CNCc3cc(O)c(O)cc32)cc(OC)c1OC (centres undefined)
Activity [1]: inactive
ED50 [2]: 1 ×10⁻⁵ M

COc1cc(CC(CN)c2ccc(O)c(O)c2)cc(OC)c1OC (centres undefined)
Activity [1]: Active
Activity [3]: Active
